Laboratory results published in patent publication US20170334899A1, “AMINO-SUBSTITUTED ISOTHIAZOLES” (Bayer Pharma Aktiengesellschaft, priority 2014, published 2017).

Tested on: HeLa
Assay: Proliferation assay (crystal violet), HeLa
Format: cell-based
Conditions: Homo sapiens, HeLa, 96 h, HeLa cells; 4 days incubation; crystal violet staining; read-out: IC50 inhibition of proliferation, HeLa
Outline: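 Cells plated at 1000-5000/well with 10% FCS, treated after 24 h with compound at 0.001-10 μM (0.5% DMSO) for 4 days. Glutaraldehyde-fixed, crystal violet-stained, A595 normalised to zero-point plate (0%) and untreated cells (100%); IC50 by 4-parameter fit.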

Row | IC50 | Structure (SMILES)
1 | > 10 µM | Cc1nsc(Nc2cnc3ccccc3n2)c1C(=O)Nc1ccc(C(N)=O)c(F)c1 [Example 201, N-(4-carbamoyl-3-fluorophenyl)-3-methyl-5-(quinoxalin-2-ylamino)-1,2-thiazole-4-carboxamide]
2 | 3.8 µM | Cc1nsc(Nc2ccc(C#N)cn2)c1C(=O)Nc1cccc(NC(=O)OC(C)(C)C)c1 [Example 179, tert-butyl {3-[({5-[(5-cyanopyridin-2-yl)amino]-3-methyl-1,2-thiazol-4-yl}carbonyl)amino]phenyl}carbamate]
3 | 8.7 µM | Cc1nsc(Nc2ccc(C#N)cn2)c1C(=O)Nc1ccc(OCCC(=O)OC(C)(C)C)nc1 [Example 199, tert-butyl 3-({5-[({5-[(5-cyanopyridin-2-yl)amino]-3-methyl-1,2-thiazol-4-yl}carbonyl)amino]pyridin-2-yl}oxy)propanoate]
4 | 0.94 µM | Cc1nsc(Nc2cncc(C(F)(F)F)n2)c1C(=O)Nc1ccc(OC2CCCN(C(=O)OC(C)(C)C)C2)nc1 (stereo not drawn) [Example 189, tert-butyl 3-[(5-{[(3-methyl-5-{[6-(trifluoromethyl)pyrazin-2-yl]amino}-1,2-thiazol-4-yl)carbonyl]amino}pyridin-2-yl)oxy]piperidine-1-carboxylate]
5 | 2.5 µM | Cc1nsc(Nc2cnc(C(F)(F)F)cn2)c1C(=O)Nc1ccc(OCCN)c(F)c1 [Example 221, 3-N-[4-(2-aminoethoxy)-3-fluorophenyl]-3-methyl-5-{[5-(trifluoromethyl)pyrazin-2-yl]amino}-1,2-thiazole-4-carboxamide]
6 | > 10 µM | CC(=O)Nc1cc(NC(=O)c2c(C)nsc2Nc2cnccn2)ccc1F [Example 205, N-(3-acetamido-4-fluorophenyl)-3-methyl-5-(pyrazin-2-ylamino)-1,2-thiazole-4-carboxamide]
7 | > 10 µM | Cc1nsc(Nc2cncc(C(F)(F)F)n2)c1C(=O)Nc1ccc(OCCN)nc1 [Example 196, N-[6-(2-aminoethoxy)pyridin-3-yl]-3-methyl-5-{[6-(trifluoromethyl)pyrazin-2-yl]amino}-1,2-thiazole-4-carboxamide]
8 | 7.3 µM | Cc1nsc(Nc2ccc(C#N)cn2)c1C(=O)Nc1ccc(S(C)(=O)=O)cc1 [Example 246, 5-[(5-cyanopyridin-2-yl)amino]-3-methyl-N-[4-(methylsulfonyl)phenyl]-1,2-thiazole-4-carboxamide]
9 | > 10 µM | Cc1nsc(Nc2cnc3ccccc3n2)c1C(=O)Nc1ccc(C(=O)O)cc1 [Example 187, 4-({[3-methyl-5-(quinoxalin-2-ylamino)-1,2-thiazol-4-yl]carbonyl}amino)benzoic acid]
10 | 2.4 µM | CC(=O)N1CCC(Oc2ccc(NC(=O)c3c(C)nsc3Nc3cncc(C(F)(F)F)n3)cn2)CC1 [Example 17, N-{6-[(1-Acetylpiperidin-4-yl)oxy]pyridin-3-yl}-3-methyl-5-{[6-(trifluoromethyl)-pyrazin-2-yl]amino}-1,2-thiazole-4-carboxamide]
11 | > 10 µM | Cc1nsc(Nc2cc(C#N)ccn2)c1C(=O)Nc1ccc(NC2CCCNC2)nc1 (stereo not drawn) [Example 242, 5-[(4-cyanopyridin-2-yl)amino]-3-methyl-N-[6-(piperidin-3-ylamino)pyridin-3-yl]-1,2-thiazole-4-carboxamide]
12 | 5 µM | Cc1nsc(Nc2cc(C#N)ccn2)c1C(=O)Nc1cccc(NC(=O)C(C)(C)C)c1 [Example 183, 5-[(4-cyanopyridin-2-yl)amino]-N-{3-[(2,2-dimethylpropanoyl)amino]phenyl}-3-methyl-1,2-thiazole-4-carboxamide]
13 | 3.8 µM | Cc1nsc(Nc2cnccn2)c1C(=O)Nc1ccc(C(=O)OC(C)(C)C)cc1 [Example 184, tert-butyl 4-({[3-methyl-5-(pyrazin-2-ylamino)-1,2-thiazol-4-yl]carbonyl}amino)benzoate]
14 | 1.9 µM | CNS(=O)(=O)c1ccc(NC(=O)c2c(C)nsc2Nc2cc(C#N)ccn2)cc1 [Example 210, 5-[(4-cyanopyridin-2-yl)amino]-3-methyl-N-[4-(methylsulfamoyl)phenyl]-1,2-thiazole-4-carboxamide]
15 | > 10 µM | Cc1nsc(Nc2cncc(C(F)(F)F)n2)c1C(=O)Nc1ccc(F)c(C(N)=O)c1 [Example 204, N-(3-carbamoyl-4-fluorophenyl)-3-methyl-5-{[6-(trifluoromethyl)pyrazin-2-yl]amino}-1,2-thiazole-4-carboxamide]
16 | 1.5 µM | Cc1nsc(Nc2cnc3ccccc3n2)c1C(=O)Nc1ccc(OC2CCN(CC(F)F)CC2)nc1 [Example 20, N-(6-{[1-(2,2-difluoroethyl)piperidin-4-yl]oxy}pyridin-3-yl)-3-methyl-5-(quinoxalin-2-ylamino)-1,2-thiazole-4-carboxamide]
17 | 2.5 µM | Cc1nsc(Nc2cnc(C(F)(F)F)cn2)c1C(=O)Nc1ccc(C(=O)NCCN2CCCC(F)C2)cc1 (stereo not drawn) [Example 213, N-(4-{[2-(3-fluoropiperidin-1-yl)ethyl]carbamoyl}phenyl)-3-methyl-5-{[5-(trifluoromethyl)pyrazin-2-yl]amino}-1,2-thiazole-4-carboxamide]

Row | IC50 | Structure (SMILES)
18 | > 10 µM | Cc1cc(C)n(-c2ccccc2NC(=O)c2c(C)nsc2Nc2cnc3ccccc3n2)n1 [Example 243, N-[2-(3,5-dimethyl-1H-pyrazol-1-yl)phenyl]-3-methyl-5-(quinoxalin-2-ylamino)-1,2-thiazole-4-carboxamide]
19 | > 10 µM | CNS(=O)(=O)c1ccc(NC(=O)c2c(C)nsc2Nc2cnc(C(F)(F)F)cn2)cc1 [Example 212, 3-methyl-N-[4-(methylsulfamoyl)phenyl]-5-{[5-(trifluoromethyl)pyrazin-2-yl]amino}-1,2-thiazole-4-carboxamide]
20 | > 10 µM | CCN(CC)CCNC(=O)c1cccc(NC(=O)c2c(C)nsc2Nc2cnccn2)c1 [Example 247, N-(3-{[2-(diethylamino)ethyl]carbamoyl}phenyl)-3-methyl-5-(pyrazin-2-ylamino)-1,2-thiazole-4-carboxamide]
21 | 1.5 µM | Cc1nsc(Nc2cncc(C(F)(F)F)n2)c1C(=O)Nc1ccc(OC2CCN(CCF)CC2)nc1 [Example 14, N-(6-{[1-(2-Fluoroethyl)piperidin-4-yl]oxy}pyridin-3-yl)-3-methyl-5-{[6-(trifluoro-methyl)pyrazin-2-yl]amino}-1,2-thiazole-4-carboxamide]
22 | 9.9 µM | Cc1nsc(Nc2cnc3ccccc3n2)c1C(=O)Nc1ccc(Nc2ccc(F)c(F)c2)nc1 [Example 245, N-{6-[(3,4-difluorophenyl)amino]pyridin-3-yl}-3-methyl-5-(quinoxalin-2-ylamino)-1,2-thiazole-4-carboxamide]
23 | > 10 µM | Cc1nsc(Nc2ccc(C#N)cn2)c1C(=O)Nc1ccc(F)c(C(N)=O)c1 [Example 203, N-(3-carbamoyl-4-fluorophenyl)-5-[(5-cyanopyridin-2-yl)amino]-3-methyl-1,2-thiazole-4-carboxamide]
24 | 8.1 µM | Cc1nsc(Nc2cnc3ccccc3n2)c1C(=O)Nc1ccc(NCC2CCN(C(=O)OC(C)(C)C)CC2)nc1 [Example 238, tert-butyl 4-({[5-({[3-methyl-5-(quinoxalin-2-ylamino)-1,2-thiazol-4-yl]carbonyl}amino)pyridin-2-yl]amino}methyl)piperidine-1-carboxylate]
25 | 2.7 µM | Cc1nsc(Nc2cncc(C(F)(F)F)n2)c1C(=O)Nc1ccc(C(=O)OC(C)(C)C)cc1 [Example 193, tert-butyl tert-butyl 4-{[(3-methyl-5-{[6-(trifluoromethyl)pyrazin-2-yl]amino}-1,2-thiazol-4-yl)carbonyl]amino}benzoate]
26 | 9.3 µM | Cc1nsc(Nc2cnc3ccccc3n2)c1C(=O)Nc1ccc(NC2CCCN(C(=O)OC(C)(C)C)C2)nc1 (stereo not drawn) [Example 241, tert-butyl 3-{[5-({[3-methyl-5-(quinoxalin-2-ylamino)-1,2-thiazol-4-yl]carbonyl}amino)pyridin-2-yl]amino}piperidine-1-carboxylate]
27 | 0.91 µM | Cc1nsc(Nc2cncc(C(F)(F)F)n2)c1C(=O)Nc1ccc(OCC2CCN(C(=O)OC(C)(C)C)CC2)nc1 [Example 226, tert-butyl 4-{[(5-{[(3-methyl-5-{[6-(trifluoromethyl)pyrazin-2-yl]amino}-1,2-thiazol-4-yl)carbonyl]amino}pyridin-2-yl)oxy]methyl}piperidine-1-carboxylate]
28 | 7.5 µM | Cc1nsc(Nc2cnc(C(F)(F)F)cn2)c1C(=O)Nc1ccc(OCCN)nc1 [Example 197, N-[6-(2-aminoethoxy)pyridin-3-yl]-3-methyl-5-{[5-(trifluoromethyl)pyrazin-2-yl]amino}-1,2-thiazole-4-carboxamide]
29 | 2.5 µM | Cc1nsc(Nc2cncc(C(F)(F)F)n2)c1C(=O)Nc1cccc(S(C)(=O)=O)c1 [Example 194, 3-methyl-N-[3-(methylsulfonyl)phenyl]-5-{[6-(trifluoromethyl)pyrazin-2-yl]amino}-1,2-thiazole-4-carboxamide]
30 | > 10 µM | Cc1nsc(Nc2cnc3ccccc3n2)c1C(=O)Nc1ccccc1S(C)(=O)=O [Example 188, 3-methyl-N-[2-(methylsulfonyl)phenyl]-5-(quinoxalin-2-ylamino)-1,2-thiazole-4-carboxamide]
31 | 10 µM | Cc1nsc(Nc2cncc(C(F)(F)F)n2)c1C(=O)Nc1ccc(OC2CCNCC2)nc1 [Example 13, 3-Methyl-N-[6-(piperidin-4-yloxy)pyridin-3-yl]-5-{[6-(trifluoromethyl)pyrazin-2-yl]-amino}-1,2-thiazole-4-carboxamide]
32 | 2 µM | Cc1nsc(Nc2cnc(C(F)(F)F)cn2)c1C(=O)Nc1ccc(OCC2CCN(C(=O)OC(C)(C)C)CC2)nc1 [Example 227, tert-butyl 4-{[(5-{[(3-methyl-5-{[5-(trifluoromethyl)pyrazin-2-yl]amino}-1,2-thiazol-4-yl)carbonyl]amino}pyridin-2-yl)oxy]methyl}piperidine-1-carboxylate]
33 | > 10 µM | CCN(CC)CCNC(=O)c1cccc(NC(=O)c2c(C)nsc2Nc2cc(C#N)ccn2)c1 [Example 174, 5-[(4-cyanopyridin-2-yl)amino]-N-(3-{[2-(diethylamino)ethyl]carbamoyl}phenyl)-3-methyl-1,2-thiazole-4-carboxamide]
